{"source": "patent US7396529B2", "about": "“Compositions and methods for regulating receptor clustering” (Mount Sinai Hospital, priority 2001, dated 2008)", "key": {"[1]": {"system": "protein tyrosine phosphorylation in T cells", "test": "TCR signaling: phosphotyrosine Western blot after anti-CD3ε bead stimulation", "format": "cell-based, mouse", "conditions": "for Protein phosphorylation induced by anti-CD3ε antibody coated beads: Mgat5+/+ T cells, disaccharide 1/3 serial dilution from 2.4 mM, 1 min stimulation"}, "[2]": {"system": "TCR clustering in wild type (Mgat5+/+) T cells", "test": "TCR clustering at anti-CD3ε antibody-coated beads after disaccharide pre-incubation", "format": "cell-based, mouse", "conditions": "for Enhanced TCR clustering observed (cells with clustering / cells examined): Mgat5+/+ T cells pre-incubated 20 min with 2 mM disaccharide, then anti-CD3ε antibody-coated beads 10 min, stained for TCR; for Effect on TCR clustering at the bead interface: wild type ex vivo T cells, 20 min disaccharide pre-incubation, 10 min anti-CD3ε bead stimulation", "method": "TCR clustering: Six-micron polystyrene beads (Polysciences) in PBS were coated with hamster anti-mouse CD3ε antibody (Clone 2C11; Cederlane) at 2 μg/ml antibody followed by coating with 200 μg/ml bovine serum albumin (BSA). To measure TCR clustering, 5×10^4 T cells were incubated with 2.5×10^5 anti-CD3ε antibody-coated beads in 100 μl RPMI 1640+10% FCS at 37° C. for 10 minutes placed on poly-L-lysine coated cover slips. The cells were fixed with 10% formalin, stained with 2 μg/ml fluorescein isothiocyanate (FITC) labeled anti-TCRα/β antibody (Pharmigen), solubilized with 0.2% Triton X-100, labelled with rhodamine-phalloidin and Hoechst, and then visualized by deconvolution microscopy. […] To measure TCR internalization, purified splenic T cells stimulated with either 0.1 μg/ml^−1 anti-CD3 antibody or with 10 ng/ml PMA for varying lengths of time were harvested and stained with FITC-anti-TCRα/β. PMA concentrations were not limiting as 10, 50 and 100 ng/ml produced similar internalization and cell activation results. To measure actin reorganization, purified splenic T cells, stimulated with 0.1 μg/ml^−1 anti-CD3 for varying lengths of time, were fixed with 4% paraformaldehyde for 10 minutes, washed with PBS and stained with rhodamine-phalloidin and mean fluorescence intensity (MFI) was determined by FACS."}, "[3]": {"molecular_target": "Galectins", "conditions": "range; 8; read-out: Dissociation constant for galectin binding; cited from earlier work"}, "[4]": {"system": "T cell proliferation", "conditions": "depletion of Mgat5 modified glycans; cited from earlier work"}, "[5]": {"system": "EAE", "conditions": "injected into mice; cited from earlier work"}}, "note": "“Also recorded” adds a separate entry of the source."}
{"molecule": "OC[C@H]1O[C@H](O[C@H]2[C@H](O)[C@@H](O)[C@H](O)O[C@@H]2CO)[C@H](O)[C@@H](O)[C@@H]1O", "note": "[maltose]", "values": [{"measurement": "Protein phosphorylation induced by anti-CD3ε antibody coated beads", "setting": "[1]", "value": "no effect"}]}
{"molecule": "OC[C@H]1O[C@@H](O[C@H]2[C@H](O)[C@@H](O)C(O)O[C@@H]2CO)[C@H](O)[C@@H](O)[C@H]1O", "note": "(stereo partly shown) [lactose]", "values": [{"measurement": "Protein phosphorylation induced by anti-CD3ε antibody coated beads", "setting": "[1]", "value": "enhanced protein phosphorylation"}, {"measurement": "Signaling in Mgat5−/− T cells", "setting": "[1]; Mgat5−/− T cells, data not shown", "value": "did not enhance signaling"}, {"measurement": "Enhanced TCR clustering observed (cells with clustering / cells examined)", "setting": "[2]", "value": "9/10"}, {"measurement": "Effect on TCR clustering at the bead interface", "setting": "[2]", "value": "increased TCR clustering at the bead interface; also recorded: produced a phenocopy of Mgat5^−/− TCR clustering"}, {"measurement": "Kd", "setting": "[3]", "value": "~100", "unit": "µM"}]}
{"molecule": "O[C@H]1[C@H]2[C@H](O)CCCN2C[C@H]1O", "note": "[swainsonine]", "values": [{"measurement": "Effect on antigen-dependent T cell proliferation", "setting": "[4]", "value": "potentiates antigen-dependent T cell proliferation"}]}
{"molecule": "OC[C@H]1O[C@@](CO)(O[C@H]2O[C@H](CO)[C@@H](O)[C@H](O)[C@H]2O)[C@@H](O)[C@@H]1O", "note": "[sucrose]", "values": [{"measurement": "Protein phosphorylation induced by anti-CD3ε antibody coated beads", "setting": "[1]", "value": "no effect"}, {"measurement": "Enhanced TCR clustering observed (cells with clustering / cells examined)", "setting": "[2]", "value": "1/10"}, {"measurement": "Effect on TCR clustering at the bead interface", "setting": "[2]", "value": "not altered"}]}
{"molecule": "N[C@H]1C(O)O[C@H](CO)[C@@H](O[C@@H]2O[C@H](CO)[C@H](O)[C@H](O)[C@H]2O)[C@@H]1O", "note": "(stereo partly shown) [Lactosamine]", "values": [{"measurement": "Protein phosphorylation induced by anti-CD3ε antibody coated beads", "setting": "[1]", "value": "enhanced protein phosphorylation"}, {"measurement": "Kd", "setting": "[3]", "value": "~100", "unit": "µM"}]}
{"molecule": "galectin-1: exogenously added beta-galactoside-binding lectin", "values": [{"measurement": "Effect on pathology of EAE", "setting": "[5]", "value": "suppresses the pathology of EAE"}]}
